{"source": "paper PMC11638965", "about": "“Leveraging Dual-Ligase Recruitment to Enhance Protein Degradation via a Heterotrivalent Proteolysis Targeting Chimera” (Journal of the American Chemical Society, 2024)", "key": {"BRD4": {"target": "BRD4 (Homo sapiens, UniProt O60885)", "test": "Live cell kinetic HiBiT degradation assay, HiBiT-BRD4 HEK293 cells (parental, CRBN KO, VHL KO)", "type": "cell-based", "settings": "for λmax BRD4 (degradation rate): HiBiT-BRD4 knock-in HEK293 cells", "outline": "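Endogenous N-terminal HiBiT-BRD4 HEK293 cells stably expressing LgBiT (parental, CRBN KO, VHL KO) in CO2-independent medium with Endurazine, pre-equilibrated 3 h at 37 °C. Luminescence read every 7 min for 24 h after PROTAC addition (threefold series), normalized to pre-read and DMSO. Dmax = lowest reading; rate from one-phase decay; Dmax50 from Dmax-vs-concentration fit.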"}, "RKO WT cells": {"tested_on": "RKO WT cells", "test": "cells", "type": "cell-based, human", "settings": "for EC50: Homo sapiens"}, "[1]": {"settings": "HiBiT-BRD4 CRISPR knock-in HEK293 cells, live cell kinetic degradation, 24 h, read-out: Dmax 50 BRD4"}, "[2]": {"settings": "72 h, 316 pM to 10 μM, 3 days, n = 3 (Figures 5 and 8C, Table S5), read-out: EC50 RKO WT"}, "[3]": {"settings": "72 h, 500 pM to 10 μM, 3 days (Figure 10, Table S6), read-out: EC50 RKO WT"}, "[4]": {"settings": "WT RKO, 316 pM to 10 μM, n = 3 (Table S4), read-out: EC50 RKO"}}, "note": "Several values for one entry are separate records, joined by “and”; a condition that tells them apart may be missing. Identical values can stand only once. Like-named read-outs stand apart in the source and are kept apart here.", "data": [{"compound": "Cc1ncsc1-c1ccc([C@H](C)NC(=O)[C@@H]2C[C@@H](O)CN2C(=O)[C@@H](NC(=O)COCC(C)(COCCOCCOCCNc2cc3c(cc2F)C(=O)N(C2CCC(=O)NC2=O)C3=O)COCCOCCOCCOC(=O)C[C@@H]2N=C(c3ccc(Cl)cc3)c3c(sc(C)c3C)-n3c(C)nnc32)C(C)(C)C)cc1", "note": "(mixture of isomers) [AB3067 (27), (17S)-11-((2-(2-(2-((2-(2,6-dioxopiperidin-3-yl)-6-fluoro-1,3-dioxoisoindolin-5-yl)amino)ethoxy)ethoxy)ethoxy)methyl)-17-((2S,4R)-4-hydroxy-2-(((S)-1-(4-(4-methylthiazol-5-yl)phenyl)ethyl)carbamoyl)pyrrolidine-1-carbonyl)-11,18,18-trimethyl-15-oxo-3,6,9,13-tetraoxa-16-azanonadecyl 2-((S)-4-(4-chlorophenyl)-2,3,9-trimethyl-6H-thieno[3,2-f][1,2,4]triazolo[4,3-a][1,4]diazepin-6-yl)acetate]", "values": [{"measurement": "fold less Dmax 50 for BRD4 degradation in CRBN KO than in parent HiBiT-BRD4 cells", "setting": "BRD4; CRBN KO vs parental", "value": 60, "unit": "fold"}, {"measurement": "EC50", "setting": "BRD4; [1]", "value": "0.0006 µM and 0.00064 µM"}, {"measurement": "λmax (HiBiT-BRD4: CRBN KO)", "setting": "BRD4; HiBiT-BRD4 HEK293 CRBN KO cells (Figure 9)", "value": 1.0, "unit": "h⁻¹"}, {"measurement": "EC50", "setting": "BRD4; HiBiT-BRD4 HEK293 CRBN KO cells, 5 pM to 3 μM (Figure 9), read-out: Dmax 50 (HiBiT-BRD4: CRBN KO)", "value": 0.038, "unit": "µM"}, {"measurement": "λmax (HiBiT-BRD4: VHL KO)", "setting": "BRD4; HiBiT-BRD4 HEK293 VHL KO cells (Figure 9)", "value": 1.2, "unit": "h⁻¹"}, {"measurement": "EC50", "setting": "BRD4; HiBiT-BRD4 HEK293 VHL KO cells, 5 pM to 3 μM (Figure 9), read-out: Dmax 50 (HiBiT-BRD4: VHL KO)", "value": 0.023, "unit": "µM"}, {"measurement": "λmax (HiBiT-BRD4: Parental)", "setting": "BRD4; HiBiT-BRD4 HEK293 parental cells (Figure 9)", "value": 2.3, "unit": "h⁻¹"}, {"measurement": "λmax BRD4 (degradation rate)", "setting": "BRD4", "value": 2.68, "unit": "h⁻¹"}, {"measurement": "fold less Dmax 50 for BRD4 degradation in VHL KO than in parent HiBiT-BRD4 cells", "setting": "BRD4; VHL KO vs parental", "value": 40, "unit": "fold"}, {"measurement": "EC50", "setting": "RKO WT cells; [2]", "value": 0.111, "unit": "µM"}, {"measurement": "EC50", "setting": "RKO WT cells; [3]", "value": 0.073, "unit": "µM"}, {"measurement": "EC50", "setting": "RKO WT cells; RKO WT, 316 pM to 10 μM, n = 6, combination: dBET6 and MZ1 each from 5 μM (Table S7), read-out: EC50 RKO", "value": 0.049, "unit": "µM"}, {"measurement": "EC50", "setting": "RKO WT cells; [4]", "value": 0.0975, "unit": "µM"}, {"measurement": "cytotoxicity compared with 1:1 mixture of dBET6 and MZ1 (in words)", "setting": "RKO WT cells; human, 3 days", "value": "more cytoxic than the 1:1 mixture of dBET6 and MZ1"}]}, {"compound": "Cc1ncsc1-c1ccc(CNC(=O)[C@@H]2C[C@@H](O)CN2C(=O)[C@@H](NC(=O)COCC(C)(COCCOCCOCCNc2cc3c(cc2F)C(=O)N(C2CCC(=O)NC2=O)C3=O)COCCOCCOCCOC(=O)C[C@@H]2N=C(c3ccc(Cl)cc3)c3c(sc(C)c3C)-n3c(C)nnc32)C(C)(C)C)cc1", "note": "(mixture of isomers) [AB3063 (26), (17S)-11-((2-(2-(2-((2-(2,6-dioxopiperidin-3-yl)-6-fluoro-1,3-dioxoisoindolin-5-yl)amino)ethoxy)ethoxy)ethoxy)methyl)-17-((2S,4R)-4-hydroxy-2-((4-(4-methylthiazol-5-yl)benzyl)carbamoyl)pyrrolidine-1-carbonyl)-11,18,18-trimethyl-15-oxo-3,6,9,13-tetraoxa-16-azanonadecyl 2-((S)-4-(4-chlorophenyl)-2,3,9-trimethyl-6H-thieno[3,2-f][1,2,4]triazolo[4,3-a][1,4]diazepin-6-yl)acetate]", "values": [{"measurement": "fold increase in degradation of BRD4 (Dmax 50) vs matched pair", "setting": "BRD4; 23 vs 1, 26 vs 23, 30 vs 2, HiBiT-BRD4 HEK293 cells", "value": 3.7, "unit": "fold"}, {"measurement": "EC50", "setting": "BRD4; [1]", "value": 0.003, "unit": "µM"}, {"measurement": "λmax BRD4 (degradation rate)", "setting": "BRD4", "value": 1.98, "unit": "h⁻¹"}, {"measurement": "EC50", "setting": "RKO WT cells; [2]", "value": 0.26, "unit": "µM"}, {"measurement": "EC50", "setting": "RKO WT cells; [4]", "value": 0.165, "unit": "µM"}]}, {"compound": "Cc1ncsc1-c1ccc([C@H](C)NC(=O)[C@@H]2C[C@@H](O)CN2C(=O)[C@@H](NC(=O)COCC(C)(COCCOCCOCCNc2cccc3c2C(=O)N(C2CCC(=O)NC2=O)C3=O)COCCOCCOCCOC(=O)C[C@@H]2N=C(c3ccc(Cl)cc3)c3c(sc(C)c3C)-n3c(C)nnc32)C(C)(C)C)cc1", "note": "(mixture of isomers) [AB3066 (24), (17S)-11-((2-(2-(2-((2-(2,6-dioxopiperidin-3-yl)-1,3-dioxoisoindolin-4-yl)amino)ethoxy)ethoxy)ethoxy)methyl)-17-((2S,4R)-4-hydroxy-2-(((S)-1-(4-(4-methylthiazol-5-yl)phenyl)ethyl)carbamoyl)pyrrolidine-1-carbonyl)-11,18,18-trimethyl-15-oxo-3,6,9,13-tetraoxa-16-azanonadecyl 2-((S)-4-(4-chlorophenyl)-2,3,9-trimethyl-6H-thieno[3,2-f][1,2,4]triazolo[4,3-a][1,4]diazepin-6-yl)acetate]", "values": [{"measurement": "EC50", "setting": "BRD4; [1]", "value": 0.003, "unit": "µM"}, {"measurement": "λmax BRD4 (degradation rate)", "setting": "BRD4", "value": 2.16, "unit": "h⁻¹"}, {"measurement": "EC50", "setting": "RKO WT cells; [4]", "value": 0.151, "unit": "µM"}]}, {"compound": "Cc1ncsc1-c1ccc(CNC(=O)[C@@H]2C[C@@H](O)CN2C(=O)[C@@H](NC(=O)COCC(C)(COCCOCCOCCOC(=O)C[C@@H]2N=C(c3ccc(Cl)cc3)c3c(sc(C)c3C)-n3c(C)nnc32)COCCOCCOCCN2CCN(c3cc4c(cc3F)C(=O)N(C3CCC(=O)NC3=O)C4=O)CC2)C(C)(C)C)cc1", "note": "(mixture of isomers) [AB3030 (32), (17S)-11-((2-(2-(2-(4-(2-(2,6-dioxopiperidin-3-yl)-6-fluoro-1,3-dioxoisoindolin-5-yl)piperazin-1-yl)ethoxy)ethoxy)ethoxy)methyl)-17-((2S,4R)-4-hydroxy-2-((4-(4-methylthiazol-5-yl)benzyl)carbamoyl)pyrrolidine-1-carbonyl)-11,18,18-trimethyl-15-oxo-3,6,9,13-tetraoxa-16-azanonadecyl 2-((S)-4-(4-chlorophenyl)-2,3,9-trimethyl-6H-thieno[3,2-f][1,2,4]triazolo[4,3-a][1,4]diazepin-6-yl)acetate]", "values": [{"measurement": "EC50", "setting": "BRD4; [1]", "value": 0.0074, "unit": "µM"}, {"measurement": "λmax BRD4 (degradation rate)", "setting": "BRD4", "value": 2.19, "unit": "h⁻¹"}, {"measurement": "EC50", "setting": "RKO WT cells; [4]", "value": 0.402, "unit": "µM"}]}, {"compound": "Cc1ncsc1-c1ccc([C@H](C)NC(=O)[C@@H]2C[C@H](O)CN2C(=O)[C@@H](NC(=O)COCC(C)(COCCOCCOCCNc2cc3c(cc2F)C(=O)N(C2CCC(=O)N(C)C2=O)C3=O)COCCOCCOCCOC(=O)C[C@@H]2N=C(c3ccc(Cl)cc3)c3c(sc(C)c3C)-n3c(C)nnc32)C(C)(C)C)cc1", "note": "(mixture of isomers) [neg-cis-AB3067 (95), (17S)-11-((2-(2-(2-((6-fluoro-2-(1-methyl-2,6-dioxopiperidin-3-yl)-1,3-dioxoisoindolin-5-yl)amino)ethoxy)ethoxy)ethoxy)methyl)-17-((2S,4S)-4-hydroxy-2-(((S)-1-(4-(4-methylthiazol-5-yl)phenyl)ethyl)carbamoyl)pyrrolidine-1-carbonyl)-11,18,18-trimethyl-15-oxo-3,6,9,13-tetraoxa-16-azanonadecyl 2-((S)-4-(4-chlorophenyl)-2,3,9-trimethyl-6H-thieno[3,2-f][1,2,4]triazolo[4,3-a][1,4]diazepin-6-yl)acetate]", "values": [{"measurement": "on-target BRD4 degradation activity (in words)", "setting": "BRD4; parental, CRBN KO and VHL KO HiBiT-BRD4 HEK293 cells (Figure S5)", "value": "no degradation of BRD4 in any of the cell lines"}, {"measurement": "EC50", "setting": "RKO WT cells; [3]", "value": 0.594, "unit": "µM"}, {"measurement": "EC50", "setting": "RKO WT cells; RKO, span over RKO WT, CRBN KO, VHL KO and CRBN/VHL dKO (Figure 10), read-out: EC50s in each WT, KO and dKO RKO cell line", "value": "0.522 to 0.657", "unit": "µM"}]}]}
